# PMC11921146, “Heterologous production of corosolic acid, a phyto-insulin, in agroinfiltrated Nicotiana benthamiana leaves” (Plant Biotechnology, 2024)
# Experiments:
# Assay in all cases: transient co-expression in N. benthamiana leaves, GC-MS of leaf extracts
# Format in all cases: cell-based
# Settings in all cases: alpha-amyrin formed in situ by BfOSC3; co-expressed AtHMGR1cd-S577A and LjCPR2; C-28 oxidation
# MtCYP716A12 [1] = target: T1, MtCYP716A12 (Medicago truncatula, UniProt Q2MJ20, D122Q/Q358P)
# T1 construct: gene CYP716A12; full-length; transient expression in N. benthamiana leaves (pBYR2HS)
# OeCYP716A48 = target: T2, OeCYP716A48 (Olea europaea, UniProt A0A090AQE0)
# T2 construct: gene CYP716A48; full-length; transient expression in N. benthamiana leaves (pBYR2HS)
# MtCYP716A12 [2] = target: T3, MtCYP716A12 (Medicago truncatula, UniProt Q2MJ20)
# T3 construct: gene CYP716A12; full-length; transient expression in N. benthamiana leaves (pBYR2HS)
# MtCYP716A12 [3] = target: T4, MtCYP716A12 (Medicago truncatula, UniProt Q2MJ20, D122Q)
# T4 construct: gene CYP716A12; full-length; transient expression in N. benthamiana leaves (pBYR2HS)
# T4 sequence (Q2MJ20 whole entry D122Q, the tested form may be a part): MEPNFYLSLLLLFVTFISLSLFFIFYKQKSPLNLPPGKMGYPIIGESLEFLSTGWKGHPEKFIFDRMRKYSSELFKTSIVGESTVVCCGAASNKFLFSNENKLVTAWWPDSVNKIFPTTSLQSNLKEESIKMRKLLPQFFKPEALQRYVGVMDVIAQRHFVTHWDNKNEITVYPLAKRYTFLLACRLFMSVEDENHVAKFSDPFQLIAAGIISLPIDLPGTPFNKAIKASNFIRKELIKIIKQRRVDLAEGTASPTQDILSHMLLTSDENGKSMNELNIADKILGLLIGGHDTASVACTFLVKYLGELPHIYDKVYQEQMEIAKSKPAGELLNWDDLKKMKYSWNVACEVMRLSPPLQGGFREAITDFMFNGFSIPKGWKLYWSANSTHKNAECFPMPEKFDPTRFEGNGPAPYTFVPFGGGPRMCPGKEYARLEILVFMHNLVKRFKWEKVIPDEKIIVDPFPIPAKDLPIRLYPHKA
# T3 sequence (Q2MJ20 whole entry, the tested form may be a part): as the sequence (Q2MJ20 whole entry D122Q, the tested form may be a part) above, with Q122D counted along it
# T1 sequence (Q2MJ20 whole entry D122Q/Q358P, the tested form may be a part): as the sequence (Q2MJ20 whole entry D122Q, the tested form may be a part) above, with Q358P counted along it
# T2 sequence (A0A090AQE0 entry or part of it): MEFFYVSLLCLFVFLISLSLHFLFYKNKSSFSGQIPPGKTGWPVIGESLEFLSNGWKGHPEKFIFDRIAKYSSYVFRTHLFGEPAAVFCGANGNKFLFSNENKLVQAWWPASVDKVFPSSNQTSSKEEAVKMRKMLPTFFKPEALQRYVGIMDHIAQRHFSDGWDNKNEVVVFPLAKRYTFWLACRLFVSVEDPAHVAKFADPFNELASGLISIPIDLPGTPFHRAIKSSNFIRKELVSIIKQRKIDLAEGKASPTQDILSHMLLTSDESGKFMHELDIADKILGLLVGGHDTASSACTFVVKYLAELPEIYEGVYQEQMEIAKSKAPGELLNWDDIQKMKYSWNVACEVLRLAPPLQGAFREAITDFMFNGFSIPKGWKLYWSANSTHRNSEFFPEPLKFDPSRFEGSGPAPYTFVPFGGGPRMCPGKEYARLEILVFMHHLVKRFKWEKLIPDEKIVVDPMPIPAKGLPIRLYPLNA
smiles,measurement,setting,value
"C[C@H]1[C@H](C)CC[C@]2(C)CC[C@]3(C)C(=CC[C@@H]4[C@@]5(C)CC[C@H](O)C(C)(C)[C@@H]5CC[C@]43C)[C@H]12 [compound 1, α-amyrin]","transient co-expression in N. benthamiana leaves, GC-MS of leaf extracts",MtCYP716A12 [1],each of the candidate CYP716As were mixed and infiltrated into N. benthamiana leaves
same,"transient co-expression in N. benthamiana leaves, GC-MS of leaf extracts",OeCYP716A48,each of the candidate CYP716As were mixed and infiltrated into N. benthamiana leaves
same,"transient co-expression in N. benthamiana leaves, GC-MS of leaf extracts",MtCYP716A12 [2],detected in the leaves expressing wild-type MtCYP716A12
same,"transient co-expression in N. benthamiana leaves, GC-MS of leaf extracts",MtCYP716A12 [3],each of the candidate CYP716As were mixed and infiltrated into N. benthamiana leaves
